Legend:
[1] = Lyophilization of exosomes with different cryoprotectants of Table 1 (BCA kit, TEM, NTA); type: physicochemical; details: FIG. 4
Description: The protein concentration of isolated exosomes is measured by BCA protein assay kit. Isolated exosomes were characterized by fluorescent staining, Transmission electron microscopy (TEM), and Nanoparticle Tracking Analysis (NTA).
Different cryoprotectant components namely trehalose, mannitol, sorbitol, sucrose, glucose and HA (both low Mw (LW) and high Mw (HMW)), either alone or in combination with HA or glycine (see Table 1) were tested for exosome viability outcome after lyophilization. PBS (290 mOsm/kg) was used as the solvent. The LMW HA used for the examples described herein is LMW HA having a Mw lower than 10 kDa. Isolated exosomes (1 mg/ml) were dissolved in PBS solution and then mixed with cryoprotectant solution in the ratio of 1 part exosomes to 1, 3, 5, or 10 parts of cryoprotectant.
Cryoprotectant solutions were prepared using phosphate-buffered saline (PBS) while the overall osmolality of the lyophilization solutions was maintained at 290 mOsm/kg. Isolated exosomes (10^10-10^11 particle/ml) were suspended in cryoprotectant solution ranging from 1 part of exosome suspension with 3 parts of cryoprotectant solution, to, 3 parts of exosome suspension with 1 part of cryoprotectant solution. Exosomes were lyophilized and then morphology of retrieved exosomes was visualized by TEM while size and concentration were measured by NTA (see FIG. 4). […]

[2] = Freeze-drying apple exosomes using trehalose, LMW HA and their combination (TEM, NTA); type: physicochemical; details: rehydrated after freeze-drying, FIG. 5
Description: For TEM imaging, exosomes are fixed with 4.0% paraformaldehyde (PFA) in sodiumphosphate buffer and stained with 2% neutral uranyl acetate with embedding in uranyl acetate and methylcellulose mixture. Exosomes are viewed with transmission EM using Jeol JEM-1400 (Jeol Ltd., Tokyo, Japan) operating at 80 kV. Images are taken with Gatan Orius SC 1000B CCD-camera (Gatan Inc., USA) with 4008×2672 px image size and no binning.
Particle number and size distribution of the exosome is measured by NTA instrument LM14C (NanoSight LTD., London, UK) equipped with blue (404 nm, 70 mW) laser and sCMOS camera. Data are analysed with Nanosight software v3.0, using threshold 5 and gain 10.
To test the preservation of exosome functionality and integrity during the lyophilization process, two cryoprotectants (trehalose and LMW HA) in four different cryoprotectant combinations were used, namely: 50 mM trehalose, 100 mM trehalose, 5% LMW HA, and 50 mM trehalose +2.5% LMW HA. Lyophilization solutions were prepared using PBS. The overall osmolality of the lyophilization solutions was maintained at 290 mOsm/kg. For the freeze-drying experiments, isolated exosomes (10^10-10^11 particle/ml) were suspended in cryoprotectant solution. 5 ml of each sample was prepared. Each solution was divided into 3 polypropylene microcentrifuge tubes, each tube containing 1.2 ml of lyophilization solution supplied with exosomes. […]

[3] = test system: human dermal fibroblasts; assay: Collagen production, human collagen type I ELISA kit; type: cell-based; details: incubated 48 h, FIG. 6(c)
Description: Also, collagen production was measured using a human collagen type I ELIZA kit. Human dermal fibroblasts were incubated with the exosome samples for 48 h. 100 μl of cell culture media was collected from each sample and incubated with 100 μl of biotinylated detection antibody for 1 h at 37° C. Samples were then washed and incubated with 100 μl of horseradish peroxidase (HRP) conjugate working solution. Stop solution was added and optical density was measured at 450 nm with a Plate Reader.

[4] = test system: human dermal fibroblasts; assay: Wound scratch assay (relative wound density); type: cell-based; details: FIG. 6(a)
Description: Human dermal fibroblasts are seeded in 96 well plates at 2.4×10^4 cells/well. A cell-free area is then created in a confluent monolayer by physical exclusion through mechanical damage using a […] pipette tip. The culture medium is replaced immediately with a fresh 0.5% EV-free serum-supplemented culture medium containing 100 μg/ml of each exosome preparation tested. Three positions per scratch are imaged for 48 hours. Relative wound density is analysed by measuring the wound area over the healing time. All scratch assays are performed in triplicate.

[5] = test system: human dermal fibroblasts; assay: MTT assay (fibroblast proliferation); type: cell-based; details: FIG. 6(b)
Description: The effect of the exosomes on the proliferation of human dermal fibroblasts was measured by a 3-[4.5-Dimethylthiazol-2-yl]-2.5-diphenyltetrazolium bromide ([…]; Life technologies) assay. Briefly, human dermal fibroblast cells are seeded in 96-well plates at an initial density of 5×10^3 cells/well for 24 h and then are treated with 100 μg/mL of exosomes for 48 hours. Cells are incubated with 0.5 mg/mL of MTT for 3-5 h and then 100 μl DMSO is added to each well and the optical density is measured at 540 nm.

Molecule | exosome concentration, morphology, aggregation after lyophilization (result in words) [1] | aggregation, size and concentration of lyophilized apple exosomes (result in words) [2] | collagen production by fibroblasts (result in words) [3] | relative wound density, lyophilised versus non-lyophilised exosomes (result in words) [4] | fibroblast proliferation, lyophilised versus non-lyophilised exosomes (result in words) [5]
OC[C@H]1O[C@H](O[C@H]2O[C@H](CO)[C@@H](O)[C@H](O)[C@H]2O)[C@H](O)[C@@H](O)[C@@H]1O [trehalose, Trehalose] | best results as a single component cryoprotectant | no exosome aggregation |  |  | 
Hyaluronic acid (LMW) [hyaluronic acid at low-molecular-weight] |  |  | positive role | positive role | positive role
